Test results published in publication PMC5974752, “Bax/Tubulin/Epithelial-Mesenchymal Pathways Determine the Efficacy of Silybin Analog HM015k in Colorectal Cancer Cell Growth and Metastasis” (Frontiers in Pharmacology, 2018).

What was measured:
[1] = tested on: HCT116 Bax knockout (Bax–/–) cells; test: MTT assay, knockout cells; type: cell-based; details: Homo sapiens, HCT-116, p < 0.05 vs WT
Procedure: Colorectal cancer cell lines, including HCT116, LOVO, and S1, with varying drug sensitivity and invasiveness, were grown as adherent monolayer in culturing flasks. Normal epithelial cells lines (Chinese hamster ovarian: CHO, normal epithelial colon: CRL1459) were also grown. Both cancerous and normal cell lines were kindly obtained from the late Dr. Gary Kruh (University of Chicago, Illinois). In addition, CRC HCT116 Bax knockout (Bax–/–) cells were kindly provided by Dr. Bert Vogelstein (Johns Hopkins, Baltimore) (Zhang et al., [2000]), Bak knockout (Bak–/–) and Bax-Bak double knockout (Bax–/– and Bak–/–) cells were kindly provided by Richard Youle (NIH, […], MD) (Wang and Youle, [2012]). DMEM, with 4.5 g of glucose, was supplemented with 10% fetal bovine serum (FBS) and 1% penicillin/streptomycin and used for all cell lines. The cells were cultured in a humidified incubator containing 5% CO2 at 37°C. All of cells were checked and confirmed to be free of fungi and mycoplasma. Cells were obtained from frozen stocks and cell passaging (up to P4) was performed at 80% cell confluency by PBS and trypsin + 2.2 mM EDTA.
The 3-(4,5-dimethylthiazol-2-yl)-2,5-diphenyltetrazolium bromide (MTT) assay was used to determine the sensitivity of the different CRC cells to the novel silybin derivatives (Hussein et al., [2017]; Manivannan et al., [2017]). The cells were seeded at a density of 4,000–5,000 cells/well in 96 well plates and incubated with serial dilutions of the compounds (0, 0.1, 0.3, 1, 3, 10, 30, and 100 μM). The MTT dye (4 mg/ml) was added after 72 h of incubation and incubated with the cells for an additional 4 h at 37°C. […] A DTX 880 multimode detector (Beckman Coulter Life, Indianapolis IN, USA) was used to determine the absorbance readings at a wavelength of 570 nm. The IC50 values were determined based on 3 separate experiments, with each experiment done in triplicate. The selectivity of the compounds was determined by comparing their cytotoxicity for CRC to normal epithelial cell lines (CHO, and CRL1459).

[2] = tested on: HCT116 cells; test: MitoTracker Red / Alexa Fluor 488 annexin V flow cytometry; type: cell-based, human; details: overnight
Procedure: The mitochondrial membrane potential and the induction of apoptosis were analyzed in HCT116 cells using the MitoTracker Red and Alexa Fluor 488 annexin V kits for flow cytometry as previously described (Karthikeyan et al., [2015]). Six well plates were used for seeding of cells, followed by incubation with 15j or 15k (0, 1, 2, and 4μM) for overnight. Subsequently, the cells were harvested, counted and 4 μl of a 10μM working solution of MitoTracker Red was added to each 1 ml cell suspension, followed by 30 min of incubation at 37°C with 5% CO2. The cells were resuspended in 100 μl of annexin binding buffer and 5 μl of Alexa Fluor 488 annexin V was added to the suspension and incubated for 15 min. Finally, 400 μl of annexin-binding buffer was added and the stained cells were detected by flow cytometry. The fluorescence emission at 530 and 585 nm was measured using a BD Accuri™ C6 flow cytometer and analyzed using FCS express 5 plus De Novo software.

[3] = tested on: cyclin B1; test: Western blot in HCT116 cells; type: cell-based, human; details: 4 μM, p < 0.01
Procedure: (§1) HCT116 cells were lysed to obtain cytoplasmic and nuclear protein fractions, according to the protocol used in previous publications (Alhadidi and Shah, [2017]). Briefly, the cells were seeded in and incubated with 15k for overnight at 4μM. The cells were washed using ice-cold PBS and scraped using a cell scraper and collected in 15ml tubes. The cells were centrifuged and the PBS was discarded and replaced with 400 μl of buffer A (10 mM HEPES, pH 7.9, 0.1 mM EDTA, 0.1 mM EGTA, 10 mM KCl, 1 mM dithiothreitol, and 0.5 mM phenylmethylsulfonyl fluoride) in each tube. The cells were allowed to swell under in the buffer for 15 min on ice. Subsequently, 0.1% Nonidet P-40 was added to each suspension for 1 min to disturb the plasma membrane. The nuclei were precipitated by centrifugation at 13,000 rpm for 1 min at 4°C. The cytoplasmic proteins were collected in the supernatant and stored at −80°C. Two hundred μl of Buffer B (20 mM HEPES, pH 7.9, 1 mM EDTA, 1 mM EGTA, 400 mM NaCl, 1 mM dithiothreitol, and 1 mM phenylmethylsulfonyl fluoride) was added to the pellets and left for 30 min on ice with periodic mixing. The samples were centrifuged at 13,000 rpm for 15 min at 4°C to obtain the nuclear fraction (supernatant). The bicinchoninic acid (BCA) quantification assay was used to determine the concentration of protein in the cell extracts. The Western blot was done as previously described (Tiwari et al., [2013]). Rabbit α-tubulin, 1:4,000 dilution, rabbit Bax (1:1,000), rabbit BAK (1:1,000), rabbit β-Catenin (1:4,000), rabbit DVL3 (1:4,000), mouse β-actin (1:5,000), E-cadherin (1:4,000), and N-cadherin (1:4,000), antibodies were used. Membranes were then washed and incubated for 1 h with horseradish peroxidase-labeled (HRP) anti-rabbit and anti-mouse secondary antibodies (1:5,000 dilutions). ChemiDoc Imaging Systems from Bio-Rad, (Hercules, California USA) was used to detect the blots. Finally, proteins were quantified using the image J software. Data were calculated as ratios to β-actin.

[4] = tested on: Bak; test: Western blot in HCT116 cells; type: cell-based, human; details: 4 μM, overnight
Procedure: as §1

[5] = tested on: N-cadherin; test: Western blot in HCT116 cells; type: cell-based, human; details: 4 μM, p < 0.01 vs control
Procedure: as §1

[6] = tested on: Bcl-2; test: Western blot in HCT116 cells; type: cell-based, human; details: 4 μM, overnight, p < 0.05
Procedure: as §1

[7] = tested on: DVL3; test: Western blot in HCT116 cells; type: cell-based, human; details: 4 μM, p < 0.01 vs vehicle
Procedure: as §1

[8] = tested on: caspase 3; test: Western blot in HCT116 cells; type: cell-based, human; details: 4 μM, p < 0.05 vs control
Procedure: as §1

[9] = tested on: c-Myc; test: Western blot in HCT116 cells; type: cell-based, human; details: 4 μM, p < 0.01 vs control
Procedure: as §1

[10] = tested on: E-cadherin; test: Western blot in HCT116 cells; type: cell-based, human; details: 4 μM, overnight
Procedure: as §1

[11] = tested on: α-tubulin; test: Western blot in HCT116 cells; type: cell-based, human; details: 4 μM, overnight, p < 0.01 vs vehicle
Procedure: as §1

[12] = tested on: Bax (p21 and p18); test: Western blot in HCT116 cells; type: cell-based, human; details: 4 μM, overnight, p < 0.001
Procedure: as §1

- IC50 [1]: 10.9 µM
Structure (SMILES): O=C(/C=C/c1cccc(OCc2ccccc2)c1)c1ccc(O)cc1 [Compound 15k]
- cells undergoing apoptosis, quadrant II (Q2) ([2]; 2 μM, vehicle 2.83%): 47%
- viability at 2 µM ([2]; Homo sapiens, HCT-116, 2 μM, vehicle 90.66%, read-out: viable cells in quadrant I (Q1)): 35.8%
- viability at 4 µM ([2]; Homo sapiens, HCT-116, 4 μM, vehicle 90.66%, read-out: viable cells in quadrant I (Q1)): 36%
- expression levels of cyclin B1 [3]: significant increase
- Bak levels [4]: no significant effect
- level of N-cadherin [5]: significantly downregulated
- levels of Bcl-2 [6]: significantly decreased
- levels of DVL3 [7]: significantly decreased
- cleavage of total caspase 3 [8]: induced the cleavage of total caspase
- levels of c-Myc protein [9]: significant decrease
- E-cadherin expression (Western blot) [10]: not significantly altered
- expression of α-tubulin [11]: significant decrease
- cleavage of Bax p21 to p18 [12]: induced the cleavage of the protein Bax (p 21)
